Results as given in patent publication US20210045385A1, “PYRIDAZINONE-SUBSTITUTED KETOXIMES AS HERBICIDES” (FMC Corporation, priority 2018, published 2021).

Tests used:
Type in all cases: in vivo
[1] = system: Italian ryegrass (Lolium multiflorum); assay: Test A preemergence, visual plant response rating; conditions: approx. 10 days
In short: (§1)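 Preemergence: seeds in loam/sand blend given directed soil spray of compound in non-phytotoxic solvent with surfactant. Postemergence: plants 2–10 cm, one- to two-leaf stage, sprayed with same formulation. Visual injury rated vs untreated controls after ~10 days in greenhouse, 0 (no effect) to 100 (complete control).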

[2] = system: barnyardgrass (Echinochloa crus-galli); assay: Test A preemergence, visual plant response rating; conditions: approx. 10 days
In short: as §1

[3] = system: foxtail, green (green foxtail, Setaria viridis); assay: Test A preemergence, visual plant response rating; conditions: approx. 10 days
In short: as §1

kochia (Kochia scoparia) [4] = assay: Test A preemergence, visual plant response rating; conditions: approx. 10 days
In short: as §1

[5] = system: pigweed (Amaranthus retroflexus); assay: Test A preemergence, visual plant response rating; conditions: approx. 10 days
In short: as §1

[6] = system: ragweed (common ragweed, Ambrosia elatior); assay: Test A preemergence, visual plant response rating; conditions: approx. 10 days
In short: as §1

[7] = system: Italian ryegrass (Lolium multiflorum); assay: Test A postemergence, visual plant response rating
In short: as §1

[8] = system: barnyardgrass (Echinochloa crus-galli); assay: Test A postemergence, visual plant response rating
In short: as §1

[9] = system: blackgrass (Alopecurus myosuroides); assay: Test A postemergence, visual plant response rating
In short: as §1

corn (Zea mays) = assay: Test A postemergence, visual plant response rating
In short: as §1

[10] = system: foxtail, green (green foxtail, Setaria viridis); assay: Test A postemergence, visual plant response rating
In short: as §1

[11] = system: galium (catchweed bedstraw, Galium aparine); assay: Test A postemergence, visual plant response rating
In short: as §1

kochia (Kochia scoparia) [12] = assay: Test A postemergence, visual plant response rating
In short: as §1

[13] = system: pigweed (Amaranthus retroflexus); assay: Test A postemergence, visual plant response rating
In short: as §1

[14] = system: ragweed (common ragweed, Ambrosia elatior); assay: Test A postemergence, visual plant response rating
In short: as §1

[15] = system: wheat (Triticum aestivum); assay: Test A postemergence, visual plant response rating
In short: as §1

[16] = system: barnyardgrass (Echinochloa crus-galli); assay: Test B flooded paddy test, visual plant response rating; conditions: 250 g ai/ha, Flood, applied to paddy water, 2-leaf stage, evaluated after 13 to 15 days
In short: (§2)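 Plants were raised to the 2-leaf stage, then pots were flooded to 3 cm above the soil and test compound was applied directly into the paddy water. Water depth was held for the whole test; after 13 to 15 days in a greenhouse, responses were scored visually against controls.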

[17] = system: ducksalad (Heteranhera limosa); assay: as above; conditions: 250 g ai/ha, Flood, applied to paddy water, 2-leaf stage, evaluated after 13 to 15 days
In short: as §2

rice (Oryza sativa) = assay: as above; conditions: 250 g ai/ha, Flood, applied to paddy water, 2-leaf stage, evaluated after 13 to 15 days
In short: as §2

[18] = system: sedge, umbrella (small-flower umbrella sedge, Cyperus difformis); assay: as above; conditions: 250 g ai/ha, Flood, applied to paddy water, 2-leaf stage, evaluated after 13 to 15 days
In short: as §2

[19] = 500 g ai/ha, postemergence, 0 is no effect, 100 is complete control
[20] = Postemergence, 125 g ai/ha, 0 to 100 scale (0 no effect, 100 complete control)

CO/N=C(/c1cc(C)ccc1C)c1c(O)c(C)nn(C)c1=O [Compound 30]
Ryegrass, Italian plant response rating (0 to 100 scale) ([1]; 125 g ai/ha Preemergence): 20
Ryegrass, Italian plant response rating (0 to 100 scale) ([1]; 500 g ai/ha Preemergence): 50
Barnyardgrass plant response rating (0 to 100 scale) ([2]; 125 g ai/ha Preemergence): 0
Barnyardgrass plant response rating (0 to 100 scale) ([2]; 500 g ai/ha Preemergence): 50
Foxtail, Green plant response rating (0 to 100 scale) ([3]; 125 g ai/ha Preemergence): 0
Foxtail, Green plant response rating (0 to 100 scale) ([3]; 500 g ai/ha Preemergence): 60
Kochia plant response rating (0 to 100 scale) (kochia (Kochia scoparia) [4]; 125 g ai/ha Preemergence): 0
Kochia plant response rating (0 to 100 scale) (kochia (Kochia scoparia) [4]; 500 g ai/ha Preemergence): 30
Pigweed plant response rating (0 to 100 scale) ([5]; 125 g ai/ha Preemergence): 30
Pigweed plant response rating (0 to 100 scale) ([5]; 500 g ai/ha Preemergence): 80
Ragweed plant response rating (0 to 100 scale) ([6]; 125 g ai/ha Preemergence): 20
Ragweed plant response rating (0 to 100 scale) ([6]; 500 g ai/ha Preemergence): 70
Ryegrass, Italian plant response rating (0 to 100 scale) [7, 19]: 70
Ryegrass, Italian plant response rating [7, 20]: 40
Barnyardgrass plant response rating (0 to 100 scale) [8, 19]: 40
Barnyardgrass plant response rating [8, 20]: 20
Blackgrass plant response rating (0 to 100 scale) [9, 19]: 80
Blackgrass plant response rating [9, 20]: 10
Corn plant response rating (0 to 100 scale) (corn (Zea mays); [19]): 0
Corn plant response rating (corn (Zea mays); [20]): 0
Foxtail, Green plant response rating (0 to 100 scale) [10, 19]: 40
Foxtail, Green plant response rating [10, 20]: 0
Galium plant response rating (0 to 100 scale) [11, 19]: 80
Galium plant response rating [11, 20]: 60
Kochia plant response rating (0 to 100 scale) (kochia (Kochia scoparia) [12]; [19]): 30
Kochia plant response rating (kochia (Kochia scoparia) [12]; [20]): 10
Pigweed plant response rating (0 to 100 scale) [13, 19]: 50
Pigweed plant response rating [13, 20]: 30
Ragweed plant response rating (0 to 100 scale) [14, 19]: 60
Ragweed plant response rating [14, 20]: 40
Wheat plant response rating (0 to 100 scale) [15, 19]: 30
Wheat plant response rating [15, 20]: 10
Plant response rating, Barnyardgrass (0 to 100 scale, 0 is no effect, 100 is complete control) [16]: 0
Plant response rating, Ducksalad (0 to 100 scale, 0 is no effect, 100 is complete control) [17]: 0
Plant response rating, Rice (0 to 100 scale, 0 is no effect, 100 is complete control) (rice (Oryza sativa)): 0
Plant response rating, Sedge, Umbrella (0 to 100 scale, 0 is no effect, 100 is complete control) [18]: 0
